Values quoted from earlier work in US8187640B2, “Low viscosity liquid polymeric delivery system” (Dunn Research & Consulting, LLC, priority 2009, dated 2012).

Test system: Male Sprague Dawley rats
Details: given in an aqueous solution

Substance: buprenorphine HCL
- Duration of efficacy in the rat tail flick test: about 5 hours
